What is called inhibition is the change of the read-out against control, counted positive when it falls.

For this assay, the target named is T1, PRKCB2 (PKC beta II) (Homo sapiens, UniProt P05771).
T1 construct: purchased Thermo Fisher Scientific (Life Technologies) SelectScreen
As to the kind of experiment: SelectScreen Z'LYTE. The format is biochemical. In short, it runs like this:
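SelectScreen broad panel; activity (Z'LYTE, Adapta) plus binding formats. ATP: Km app for CSF1R Z'LYTE; 10 for CAMK1 Adapta. Readout = % per kinase.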

T1 sequence (P05771 1-673 isoform P05771-2): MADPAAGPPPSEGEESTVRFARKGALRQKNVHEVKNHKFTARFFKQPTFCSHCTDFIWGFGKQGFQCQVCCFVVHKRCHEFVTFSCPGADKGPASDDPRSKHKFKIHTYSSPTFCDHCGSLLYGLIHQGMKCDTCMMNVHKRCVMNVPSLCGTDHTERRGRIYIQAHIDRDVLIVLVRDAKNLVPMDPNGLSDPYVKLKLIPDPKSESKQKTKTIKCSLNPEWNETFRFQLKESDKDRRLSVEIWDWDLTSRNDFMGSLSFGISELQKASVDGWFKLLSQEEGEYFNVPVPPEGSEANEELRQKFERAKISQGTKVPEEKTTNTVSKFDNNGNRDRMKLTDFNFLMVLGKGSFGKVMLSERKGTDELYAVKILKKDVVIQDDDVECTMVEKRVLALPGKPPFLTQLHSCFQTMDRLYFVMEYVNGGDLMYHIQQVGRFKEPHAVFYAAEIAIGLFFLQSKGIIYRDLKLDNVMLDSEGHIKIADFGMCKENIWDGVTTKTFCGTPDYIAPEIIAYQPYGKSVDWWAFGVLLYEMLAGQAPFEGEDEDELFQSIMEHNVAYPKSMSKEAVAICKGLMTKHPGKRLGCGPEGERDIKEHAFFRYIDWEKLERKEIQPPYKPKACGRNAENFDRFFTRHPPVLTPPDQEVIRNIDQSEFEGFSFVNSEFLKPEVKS

In the case of `CN(C(=O)CN1CCOCC1)c1ccc2sc3c(-c4cccc5c(=O)cc(N6CC7CCC(C6)O7)oc45)cccc3c2c1` [NU5455], the inhibition at 1 µM is -9.6%.

The values above are taken from paper PMC6934184, “Selective DNA-PKcs inhibition extends the therapeutic index of localized radiotherapy and chemotherapy” (The Journal of Clinical Investigation, 2019).
